Laboratory results published in patent publication US4707481A, “Pyridazinones, their preparation and use, and bronchospasmolytic medicaments containing pyridazinones” (BYK Gulden Lomberg Chemische Fabrik GmbH, priority 1983, dated 1987).
Read-outs that look alike come from different tables or passages of the source.

Experiments:
[1] = test system: left ventricles of cats; test: heart function dP/dtmax, left ventricle of anesthetized cats; assay type: in vivo, cat; settings: for increase in the heart rate or end-diastolic ventricular pressure / positive inotropic effects (increase in dP/dtmax) compared with comparison compounds: result in words
Method: The effect of the substances on the contractility of the heart in cats was tested on animals (.male., .female., 3.2 to 5.2 kg) under anesthesia with chloralose/urethane. The change in pressure in the left ventricle of the heart was measured with a tip catheter introduced through the right carotid artery, the R peak in the ECG (bipolar chest lead) initiating a signal to record the end-diastolic pressure; in addition, the maximum rate of pressure rise (dP/dtmax) was determined from the change in pressure. The heart rate was derived from the pressure waves. The test substances were administered intravenously. 2-6 animals were used per measurement, and the arithmetic mean was calculated from the results.

[2] = test system: guinea pig hearts isolated and perfused by the Langendorff method; test: left-ventricular pressure and heart rate in isolated perfused Langendorff hearts; settings: for Emax: Cavia porcellus; for EC20 left-ventricular pressure: dose which leads to a 20% increase in left ventricular pressure
Excerpt: After the animals have been sacrificed by a blow to the neck and exsanguination through the carotid arteries, the thoracic cavity is opened, and the aorta is exposed and looped up with a thread. A cannula, which is attached by tubing to the apparatus from which the nutrient solution slowly drops, is introduced in the direction of the heart and the heart is, quickly after removal from the thorax, connected to the perfusion apparatus. A balloon probe, connected to a Statham pressure sensor, is advanced through a cut through the left atrium into the left ventricle, and is provided with an initial pressure of 40 mm Hg. […] The nutrient solution flowing freely from the coronary sinus into the right atrium is measured with a flow […]) and, together with the change in the left-ventricular pressure and the heart rate determined from this, is recorded on a Watanabe recorder. The substances are administered in a volume of 0.1 ml of nutrient solution, in the dosage indicated in Tab.

[3] = test system: right ventricle of guinea pigs; test: heart function dP/dtmax, right ventricle of anesthetized guinea pigs; assay type: in vivo, guinea pig
Method: The effect of the substances on the contractility of the heart of guinea pigs is tested on animals (.male., 400 to 1000 g) under urethane anesthesia. The change in pressure in the right ventricle of the heart is measured with a tip catheter introduced through the right jugular vein and the maximum rate of pressure rise (dP/dtmax) is determined from this. The heart rate is derived from the pressure waves. […] The test substances were administered intravenously. 5-7 animals were used for each measurement, and the arithmetic mean was calculated from the results.

[4] = test system: chain of tracheal rings of guinea pigs; test: relaxing action on chain of tracheal rings in vitro (bronchospasmolytic action); set-up: species or system guinea pig; settings: for EC50: Cavia porcellus, Column A, negative logarithm of EC50 in mol/l, 50% of maximum relaxation by (-)isoprenaline, read-out: -lg[EC50] trachea (converted); for [EC40 pot.] left atrium / [EC50] trachea: Column C, measure of organ-selective activity; for [EC50] theophylline / [EC50] substance: Column D, trachea
Method: The relaxing action of the 6-aryl-3[2H]pyridazinones I has been tested in vitro on a chain of tracheal rings (Tr.) of guinea pigs. […] The quotient of [EC40pot. ]left atrium and [ED50 ]trachea serves as a measure of the organ-selective activity.
The bronchospasmolytic action of the compounds on the chain of tracheal rings of the guinea pig was tested in vitro:
Four parallel chains of tracheal rings, each consisting of 6 individual rings, of guinea pigs(.male. and .female., 430-600 g) in an organ bath [5 ml, Krebs-Henseleit solution with added phentolamine (10^-5 mol/l), 37° C., initial tension of the organs 2 g, gassing with carbogen] develop a stable, spontaneous tonic contraction after about 20 to 30 minutes. […] Over a period of 20 to 30 minutes, a complete dose/action curve of the test substance is thus obtained. The particular relaxation is expressed as a percentage fraction of the maximum relaxation which can be achieved by administration of (-)isoprenaline (10^-6 mol/1). The concentration of the test substance which causes 50% of the maximum relaxation which can be achieved, expressed by the negative logarithm of the EC50 mol/l: -lg[EC50 ]is a measure of the bronchodilator activity.

[5] = test system: electrically stimulated left atrium of rats; test: positive inotropic action on electrically stimulated left atrium in vitro; set-up: species or system rat; settings: for [EC40 pot.] theophylline / [EC40 pot.] substance: Column E, left atrium; for EC40: Rattus norvegicus, Column B, negative logarithm of EC40pot in mol/l, 40% increase in contraction force, read-out: -lg[EC40 pot.] left atrium (converted)
Method: The positive inotropic action was tested in vitro on the electrically stimulated left atrium of rats (l.a.).
The positive inotropic action of the compounds was tested in vitro on the electrically stimulated left atrium of rats.
Isometric contractions (HSE force sensor K-30; Watanabe recorder, Linear Corder Mark 5) of isolated, left atria from rats (.male., 250-300 g) in an organ bath (10 ml, Tyrode nutrient solution, 31° C., gassing with carbogen, initial tension of the organs 0.25 g) under electrical stimulation (HSE stimulator, 7 V, 3 ms, 2 Hz) were recorded. […] The particular increase in the contraction force is expressed in % of the starting value before administration of the substance. The concentration of the test substance which potentiates the contraction force of the atrium by 40% compared with the starting value [EC40pot. mol/l], expressed by the negative logarithm of the [EC40pot mol/l]: -lg[EC40pot ] serves as a measure of the cardiotonic activity.

[6] = 0.3 μmol/kg i.v., 0-10 min (Maximum)
[7] = 1 μmol/kg i.v., 0-10 min (Maximum)
[8] = 3 μmol/kg i.v., 0-10 min (Maximum)
[9] = after 1000 nMol, read-out: Emax left-ventricular pressure
[10] = at Emax, 1000 nMol, read-out: Percentage increase in heart rate at Emax

EC50 [4] | [EC40 pot.] left atrium / [EC50] trachea [4] | [EC50] theophylline / [EC50] substance [4] | SMILES | Percentage change in dP/dtmax ([1]; 1 μmol/kg i.v., 3 min) | Percentage change in dP/dtmax ([1]; 1 μmol/kg i.v., 10 min) | Percentage change in dP/dtmax ([1]; 1 μmol/kg i.v., 30 min) | Percentage change in dP/dtmax ([1]; 1 μmol/kg i.v., 60 min) | Percentage increase in heart rate at EC20 [2] | EC20 left-ventricular pressure [2] | Percentage change in dP/dtmax [3, 6] | Percentage change in dP/dtmax ([3]; 0.3 μmol/kg i.v., 10 min) | Percentage change in dP/dtmax ([3]; 0.3 μmol/kg i.v., 30 min) | Percentage change in dP/dtmax [3, 7] | Percentage change in dP/dtmax ([3]; 1 μmol/kg i.v., 10 min) | Percentage change in dP/dtmax ([3]; 1 μmol/kg i.v., 30 min) | Percentage change in dP/dtmax [3, 8] | Percentage change in dP/dtmax ([3]; 3 μmol/kg i.v., 10 min) | Percentage change in dP/dtmax ([3]; 3 μmol/kg i.v., 30 min) | [EC40 pot.] theophylline / [EC40 pot.] substance [5] | EC40 [5] | further results
 |  |  | Nc1cc(-c2ccncc2)c[nH]c1=O [Amrinone, amrinone, reference compound] | 17% | 6% | 7% | 23% | 7% | 1410 nmol | 33% | 8% | 13% | 40% | 21% | 15% | 66% | 13% | 20% |  |  | Percentage change in dP/dtmax ([1]; 3 μmol/kg i.v., 3 min): 52%; Percentage change in dP/dtmax ([1]; 3 μmol/kg i.v., 10 min): 42%; Percentage change in dP/dtmax ([1]; 3 μmol/kg i.v., 30 min): 40%; Percentage change in dP/dtmax ([1]; 3 μmol/kg i.v., 60 min): 43%; Percentage change in dP/dtmax ([1]; 10 μmol/kg i.v., 3 min): 70%; Percentage change in dP/dtmax ([1]; 10 μmol/kg i.v., 10 min): 67%; Percentage change in dP/dtmax ([1]; 10 μmol/kg i.v., 30 min): 59%; Percentage change in dP/dtmax ([1]; 10 μmol/kg i.v., 60 min): 55%; Emax ([2]; after 3000 nMol, read-out: Emax left-ventricular pressure): 35%; Emax ([2]; at Emax, 3000 nMol, read-out: Percentage increase in heart rate at Emax): 8%; Percentage change in dP/dtmax ([3]; 10 μmol/kg i.v., 0-10 min (Maximum)): 101%; Percentage change in dP/dtmax ([3]; 10 μmol/kg i.v., 10 min): 39%; Percentage change in dP/dtmax ([3]; 10 μmol/kg i.v., 30 min): 29%; Percentage change in dP/dtmax ([3]; 30 μmol/kg i.v., 0-10 min (Maximum)): 141%; Percentage change in dP/dtmax ([3]; 30 μmol/kg i.v., 10 min): 78%; Percentage change in dP/dtmax ([3]; 30 μmol/kg i.v., 30 min): 69%
1320 nM | 2.9 | 102 | CCOc1ccc(-c2ccc(=O)[nH]n2)cc1OC [Serial No. 4, 6-(4-ethoxy-3-methoxyphenyl)-3[2H]pyridazinone] |  |  |  |  | 6% | 22 nmol | 39% | 12% | 23% | 140% | 26% | 56% | 95% | 66% | 59% | 109 | 3800 nM | Emax ([2]; after 300 nMol, read-out: Emax left-ventricular pressure): 58%; Emax ([2]; at Emax, 300 nMol, read-out: Percentage increase in heart rate at Emax): 27%
1510 nM | 4.4 | 85.2 | C=CCOc1ccc(-c2ccc(=O)[nH]n2)cc1OC [Serial No. 5, 6-(4-allyloxy-3-methoxyphenyl)-3[2H]pyridazinone] | 64% | 25% | 15% | 20% | 3% | 14 nmol |  |  |  |  |  |  |  |  |  | 63.1 | 6610 nM | Percentage change in dP/dtmax ([1]; 0.3 μmol/kg i.v., 3 min): 27%; Percentage change in dP/dtmax ([1]; 0.3 μmol/kg i.v., 10 min): 12%; Percentage change in dP/dtmax ([1]; 0.3 μmol/kg i.v., 30 min): 11%; Percentage change in dP/dtmax ([1]; 0.3 μmol/kg i.v., 60 min): 13%; increase in the heart rate or end-diastolic ventricular pressure [1]: without leading to any considerable increase in the heart rate or end-diastolic ventricular pressure; positive inotropic effects (increase in dP/dtmax) compared with comparison compounds [1]: stronger positive inotropic effects; Emax [2, 9]: 185%; Emax [2, 10]: 9%

SMILES | EC50 [4] | [EC40 pot.] left atrium / [EC50] trachea [4] | [EC50] theophylline / [EC50] substance [4] | Percentage change in dP/dtmax ([1]; 1 μmol/kg i.v., 3 min) | Percentage change in dP/dtmax ([1]; 1 μmol/kg i.v., 10 min) | Percentage change in dP/dtmax ([1]; 1 μmol/kg i.v., 30 min) | Percentage change in dP/dtmax ([1]; 1 μmol/kg i.v., 60 min) | Percentage increase in heart rate at EC20 [2] | EC20 left-ventricular pressure [2] | Percentage change in dP/dtmax [3, 6] | Percentage change in dP/dtmax ([3]; 0.3 μmol/kg i.v., 10 min) | Percentage change in dP/dtmax ([3]; 0.3 μmol/kg i.v., 30 min) | Percentage change in dP/dtmax [3, 7] | Percentage change in dP/dtmax ([3]; 1 μmol/kg i.v., 10 min) | Percentage change in dP/dtmax ([3]; 1 μmol/kg i.v., 30 min) | Percentage change in dP/dtmax [3, 8] | Percentage change in dP/dtmax ([3]; 3 μmol/kg i.v., 10 min) | Percentage change in dP/dtmax ([3]; 3 μmol/kg i.v., 30 min) | [EC40 pot.] theophylline / [EC40 pot.] substance [5] | EC40 [5] | further results
CCC(C)Oc1ccc(-c2ccc(=O)[nH]n2)cc1OC (stereo not drawn) [Serial No. 7, 6-(4-sec.-butoxy-3-methoxyphenyl)-3[2H]pyridazinone] | 1320 nM | 2.6 | 102 | 90% | 25% | 11% | 11% | 3% | 13 nmol |  |  |  |  |  |  |  |  |  | 120 | 3470 nM | Percentage change in dP/dtmax ([1]; 0.3 μmol/kg i.v., 3 min): 36%; Percentage change in dP/dtmax ([1]; 0.3 μmol/kg i.v., 10 min): 4%; Percentage change in dP/dtmax ([1]; 0.3 μmol/kg i.v., 30 min): 1%; Percentage change in dP/dtmax ([1]; 0.3 μmol/kg i.v., 60 min): 2%; increase in the heart rate or end-diastolic ventricular pressure [1]: without leading to any considerable increase in the heart rate or end-diastolic ventricular pressure; positive inotropic effects (increase in dP/dtmax) compared with comparison compounds [1]: stronger positive inotropic effects; Emax [2, 9]: 86%; Emax [2, 10]: 23%
